Consider three compounds from patent US10870647B2, “Imidazopyridine derivative, method for preparing same, and pharmaceutical composition containing same as active ingredient for preventing or treating cancer” (DAEGU-GYEONGBUK MEDICAL INNOVATION FOUNDATION, priority 2016, dated 2020).

Experiment [1] concerns the target T1, scanMAX Kinase assay panel (Homo sapiens, UniProt Q9NRM7).
T1 construct: purchased DiscoverX
T1 sequence (Q9NRM7 1-1088): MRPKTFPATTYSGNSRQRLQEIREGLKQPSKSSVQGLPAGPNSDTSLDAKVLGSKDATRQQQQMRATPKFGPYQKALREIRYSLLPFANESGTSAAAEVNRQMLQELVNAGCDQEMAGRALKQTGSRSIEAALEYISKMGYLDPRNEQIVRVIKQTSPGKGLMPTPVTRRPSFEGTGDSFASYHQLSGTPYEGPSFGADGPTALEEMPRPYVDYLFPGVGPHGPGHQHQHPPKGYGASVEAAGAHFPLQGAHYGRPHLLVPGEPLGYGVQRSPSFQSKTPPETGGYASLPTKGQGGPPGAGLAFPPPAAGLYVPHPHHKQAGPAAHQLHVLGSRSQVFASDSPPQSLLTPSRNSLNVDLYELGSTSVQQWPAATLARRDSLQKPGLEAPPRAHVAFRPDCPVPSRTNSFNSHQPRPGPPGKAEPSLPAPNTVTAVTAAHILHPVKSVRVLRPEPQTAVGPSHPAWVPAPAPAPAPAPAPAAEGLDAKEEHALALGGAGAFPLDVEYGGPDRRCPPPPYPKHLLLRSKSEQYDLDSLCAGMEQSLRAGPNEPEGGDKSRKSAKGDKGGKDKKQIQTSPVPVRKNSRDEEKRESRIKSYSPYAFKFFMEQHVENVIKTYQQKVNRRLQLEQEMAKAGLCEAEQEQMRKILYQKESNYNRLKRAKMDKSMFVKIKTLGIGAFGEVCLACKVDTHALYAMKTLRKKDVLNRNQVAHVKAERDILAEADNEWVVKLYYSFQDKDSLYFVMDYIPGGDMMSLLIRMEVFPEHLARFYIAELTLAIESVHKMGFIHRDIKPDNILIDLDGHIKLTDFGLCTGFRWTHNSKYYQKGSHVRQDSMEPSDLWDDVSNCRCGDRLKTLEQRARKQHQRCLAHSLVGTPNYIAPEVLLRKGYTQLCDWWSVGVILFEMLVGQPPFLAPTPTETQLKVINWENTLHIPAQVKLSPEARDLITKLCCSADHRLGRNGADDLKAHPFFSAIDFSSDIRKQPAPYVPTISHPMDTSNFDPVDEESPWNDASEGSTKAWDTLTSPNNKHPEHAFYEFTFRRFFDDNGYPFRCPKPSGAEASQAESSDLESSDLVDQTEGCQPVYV
The experiment is described as follows: Kinase selectivity, scanMAX Kinase assay panel (DiscoverX), % control at 1 uM. The class given is binding. Particulars: LATS2; 1 uM; read-out: Percent Control (%). Put shortly:
(§1)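 Binding across the scanMAX kinase panel was tested at 1 uM compound. % control = (compound − positive control)/(negative control − positive control) × 100; below 35 counted as active.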

In experiment [2] the target is T2, scanMAX Kinase assay panel (Homo sapiens, UniProt Q9BZL6).
T2 construct: purchased DiscoverX
T2 sequence (Q9BZL6 1-878): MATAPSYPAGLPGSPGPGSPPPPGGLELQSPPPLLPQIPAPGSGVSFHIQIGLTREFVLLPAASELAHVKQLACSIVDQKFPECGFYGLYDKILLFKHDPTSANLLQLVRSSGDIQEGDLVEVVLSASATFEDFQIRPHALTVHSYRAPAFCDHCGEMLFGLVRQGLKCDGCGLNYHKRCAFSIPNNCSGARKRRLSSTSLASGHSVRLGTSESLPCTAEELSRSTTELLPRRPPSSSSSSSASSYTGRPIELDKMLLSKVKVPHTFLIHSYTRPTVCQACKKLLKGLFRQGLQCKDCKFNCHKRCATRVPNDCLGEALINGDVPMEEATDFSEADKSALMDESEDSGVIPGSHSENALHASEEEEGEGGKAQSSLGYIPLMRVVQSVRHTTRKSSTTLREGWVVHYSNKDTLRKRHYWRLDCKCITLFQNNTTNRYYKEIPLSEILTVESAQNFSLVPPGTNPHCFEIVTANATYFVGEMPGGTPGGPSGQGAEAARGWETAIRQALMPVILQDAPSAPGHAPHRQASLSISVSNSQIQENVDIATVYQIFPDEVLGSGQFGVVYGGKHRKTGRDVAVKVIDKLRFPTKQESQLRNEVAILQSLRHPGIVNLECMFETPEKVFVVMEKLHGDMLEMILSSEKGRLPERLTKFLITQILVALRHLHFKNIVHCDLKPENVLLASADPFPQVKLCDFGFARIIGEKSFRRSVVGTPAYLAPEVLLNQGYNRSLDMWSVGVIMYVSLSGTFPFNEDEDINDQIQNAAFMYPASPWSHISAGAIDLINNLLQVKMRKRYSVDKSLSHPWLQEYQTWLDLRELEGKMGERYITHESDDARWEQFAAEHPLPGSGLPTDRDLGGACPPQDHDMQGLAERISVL
The description is as above. The class given is binding. As to conditions: PRKD2; 1 uM; read-out: Percent Control (%). The gist of the method:
as §1

In the case of `Cc1ccc(C(=O)Nc2ccc(CN3CCN(C)CC3)c(C(F)(F)F)c2)cc1C#Cc1cnc2c(Nc3cnn(C)c3)cccn12` [Example 1, 4-methyl-3-((8-((1-methyl-1H-pyrazol-4-yl)amino)imidazo[1,2-a]pyridin-3-yl)ethynyl)-N-(4-((4-methylpiperazin-1-yl)methyl)-3-(trifluoromethyl)phenyl)benzamide], the remaining binding at 1 µM in experiment [1] came out at 67%; in experiment [2], 41%.

With `Cc1ccc(NC(=O)C2(C(=O)Nc3ccc(F)cc3)CC2)cc1C#Cc1cnc2c(Nc3cnn(C(C)C)c3)cccn12` [Example 78], the remaining binding at 1 µM was determined as 100% in experiment [1] and 95% in experiment [2].

`Cc1cn(-c2cc(NC(=O)c3ccc(C)c(C#Cc4cnc5c(Nc6cnn(C)c6)cccn45)c3)cc(C(F)(F)F)c2)cn1` [Example 12, 4-methyl-N-(3-(4-methyl-1H-imidazol-1-yl)-5-(trifluoromethyl)phenyl)-3-((8-((1-methyl-1H-pyrazol-4-yl)amino)imidazo[1,2-a]pyridin-3-yl)ethynyl)benzamide]: the remaining binding at 1 µM in experiment [1] and in experiment [2] was 98% each time.
